Eleven compounds from ChEMBL document CHEMBL1759992 can be followed below.

Experiment [1] deals with Rattus norvegicus. Put plainly: Inhibition of lethal factor-induced toxicity in Fischer 344 rat assessed as enhancement of survival rate at 5 mg/kg, iv followed by administration of 10 ug lethal toxin after 20 to 30 mins of compound dosing. The format is functional, organism-based. Set-up: dose 5 mg/kg.
Experiment [2] concerns Rattus norvegicus. Description: Inhibition of lethal factor-induced toxicity in Fischer 344 rat assessed as enhancement of survival rate at 2.5 mg/kg, iv followed by administration of 10 ug lethal toxin after 20 to 30 mins of compound dosing. More on the design: dose 2.5 mg/kg. The format is functional, organism-based.

Active and inactive are the calls of the source. No cut-off for these calls is given here.

Turning to `CO[C@H](C[C@H](CCCCCNCCc1ccc(F)cc1)C(=O)NO)c1ccc(F)cc1`, the Survival result with Rattus norvegicus [1] is “inactive”.

`Cc1cc(N[C@H](CCCCNCc2ccc(F)cc2)C(=O)NO)cc(C)c1F`: the Survival entry in the experiment on Rattus norvegicus [1] and in the experiment with Rattus norvegicus [2] was “Active” in each case.

Consider `Cc1cc(O[C@H](CCCCCNCc2ccc(F)cc2)C(=O)NO)cc(C)c1F`, for which the Survival entry with Rattus norvegicus [1] was “inactive”.

In the case of `Cc1cc(CNCCCC[C@@H](Nc2ccc(F)c(C)c2)C(=O)NO)ccc1F`, the Survival entry in the experiment with Rattus norvegicus [1] was “inactive”. With `Cc1cc(CNCCCC[C@@H](Oc2ccc(F)c(C)c2)C(=O)NO)ccc1F`, the Survival result in the experiment on Rattus norvegicus [1] is “inactive”. With `CO[C@H](C[C@H](CCCCNCc1ccc(F)cc1)C(=O)NO)c1ccc(F)cc1`, the Survival result in the experiment with Rattus norvegicus [1] was “Active”. In addition, the Survival result with Rattus norvegicus [2] was “inactive”. `O=C(NO)[C@@H](CCCCNCc1ccc(F)cc1)Nc1ccc(F)c(Cl)c1`: the Survival entry in the experiment on Rattus norvegicus [1] was “inactive”. Turning to `CO[C@H](C[C@H](CCCCCNCc1ccc(F)cc1)C(=O)NO)c1ccc(F)cc1`, the Survival result in the experiment with Rattus norvegicus [1] was “inactive”.

With `Cc1cc(CNCCCC[C@@H](Nc2cc(C)c(F)c(C)c2)C(=O)NO)ccc1F`, the Survival result in the experiment with Rattus norvegicus [1] was “Active”. The Survival result with Rattus norvegicus [2] is “inactive”. Turning to `Cc1cc(O[C@H](CCCCNCc2ccc(F)cc2)C(=O)NO)cc(C)c1F`, in the experiment on Rattus norvegicus [1], the Survival result was “inactive”.

As for `Cc1cc(O[C@H](CCCCCNCCc2ccc(F)cc2)C(=O)NO)cc(C)c1F`, the Survival entry with Rattus norvegicus [1] is “inactive”.
